From ChEMBL document CHEMBL1141907, “Synthesis and in vitro biological evaluation of a carbon glycoside analogue of morphine-6-glucuronide” (Bioorg Med Chem Lett, 2005)
Where “and” joins values, the source holds several entries; their conditions need not be identical. Equal values may be shown once. Calls of active or inactive are those of the source. The rule behind the calls is not given here.

What was measured:
Mu-type opioid receptor = Mu-type opioid receptor (Homo sapiens, UniProt P35372); assay: Inhibition of [3H]-DAMGO binding to recombinant human Opioid receptor mu 1
[1] = Stimulation of [35S]GTPcS binding against recombinant human opioid receptor delta 1; format: functional
[2] = biological target: Opioid receptors; mu & delta (Homo sapiens) (UniProt P41143+P35372); assay: Receptor selectivity ratio for Opioid receptors delta 1 and mu 1; format: protein assay
[3] = Stimulation of [35S]GTPcS binding against recombinant human opioid receptor mu 1; format: functional
[4] = Inhibition of [3H]DPDPE binding to recombinant human Opioid receptor delta 1
[5] = Half life in monkey liver microsomes; format: ADME, Microsome; settings: cercopithecidae
[6] = Half life in human liver microsomes; format: ADME, Microsome
[7] = Half life in rat liver microsomes; format: ADME, Microsome
Homo sapiens [8] = species on record: Homo sapiens; assay: Percentage stimulation of [35S]GTPcS binding compared to relevant control;ND=no detectable activity; format: functional
[9] = Inhibition of [3H]U-69593 binding to recombinant human Opioid receptor kappa 1
[10] = Stimulation of [35S]GTPcS binding against recombinant human opioid receptor kappa 1;ND=no detectable activity; format: functional
Homo sapiens [11] = species on record: Homo sapiens; assay: Percentage stimulation of [35S]GTPcS binding compared to relevant control; ND=Not detectable activity; format: functional
[12] = Stimulation of [35S]GTPcS binding against recombinant human opioid receptor kappa 1; format: functional
Homo sapiens [13] = species on record: Homo sapiens; assay: Percentage stimulation of [35S]-GTPcS binding compared to relevant control; format: functional

Opioid receptors; mu & delta (Homo sapiens), sequence (P35372 whole entry, looked up): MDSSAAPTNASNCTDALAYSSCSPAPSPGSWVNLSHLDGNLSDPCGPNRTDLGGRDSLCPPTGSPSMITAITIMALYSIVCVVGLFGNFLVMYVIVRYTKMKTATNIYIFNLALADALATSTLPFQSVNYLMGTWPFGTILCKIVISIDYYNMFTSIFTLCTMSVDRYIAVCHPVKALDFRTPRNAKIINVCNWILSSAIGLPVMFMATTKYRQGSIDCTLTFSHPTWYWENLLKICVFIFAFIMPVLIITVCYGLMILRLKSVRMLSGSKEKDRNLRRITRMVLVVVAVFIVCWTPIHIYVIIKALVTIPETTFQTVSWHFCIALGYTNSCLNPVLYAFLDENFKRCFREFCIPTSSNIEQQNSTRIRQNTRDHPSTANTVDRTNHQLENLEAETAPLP
Opioid receptors; mu & delta (Homo sapiens), sequence (P41143 whole entry, looked up): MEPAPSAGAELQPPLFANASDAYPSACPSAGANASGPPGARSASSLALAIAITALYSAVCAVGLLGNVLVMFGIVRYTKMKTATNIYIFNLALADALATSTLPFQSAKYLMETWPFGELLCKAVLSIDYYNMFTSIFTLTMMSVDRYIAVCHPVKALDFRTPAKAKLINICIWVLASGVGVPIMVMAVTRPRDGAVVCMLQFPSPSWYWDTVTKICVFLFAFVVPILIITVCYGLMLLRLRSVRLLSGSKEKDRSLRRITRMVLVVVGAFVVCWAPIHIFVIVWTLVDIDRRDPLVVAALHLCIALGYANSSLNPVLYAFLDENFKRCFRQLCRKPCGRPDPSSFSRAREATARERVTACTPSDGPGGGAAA
Mu-type opioid receptor, sequence (P35372 whole entry): as the sequence (P35372 whole entry, looked up) above

Row | Compound | Ki (Mu-type opioid receptor) [µM] | EC50 [1] [µM] | Selectivity [2] | EC50 [3] [µM] | Ki [4] [µM] | half-life [5] [min] | half-life [6] [min] | half-life [7] [min] | Emax (Homo sapiens [8]) | Ki [9] [µM] | EC50 [10] | Emax (Homo sapiens [11]) | EC50 [12] [µM] | Emax (Homo sapiens [13])
1 | COC1[C@H](NC(=O)CC2OC(CO)C(O)C(O)C2O)C=C[C@H]2[C@H]3Cc4ccc(O)cc4[C@@]12CCN3C (some centres not stated) [DEPROTECTED COGENER OF M6G] | 0.0035 | 0.335 | 76.7 and 166 | 0.0372 | 0.266 |  |  |  |  |  |  |  |  | 
2 | COC1[C@H](NC(=O)CC2OC(COCc3ccccc3)C(OCc3ccccc3)C(OCc3ccccc3)C2OCc2ccccc2)CC[C@H]2[C@H]3Cc4ccc(O)cc4[C@@]12CCN3C (some centres not stated) |  |  |  |  |  | 90 | 42.9 | 19.8 |  |  |  |  |  | 
3 | COC1[C@H](SC2OC(C(=O)O)C(O)C(O)C2O)C=C[C@H]2[C@H]3Cc4ccc(O)cc4[C@@]12CCN3C (some centres not stated) | 0.0087 | 0.0501 |  | 0.0906 | 0.0314 |  |  |  | inactive | 0.288 | Not Active |  |  | 
4 | CN1CC[C@]23c4c5ccc(O)c4O[C@H]2[C@@H](O[C@@H]2O[C@H](C(=O)O)[C@@H](O)[C@H](O)[C@H]2O)C=C[C@H]3[C@H]1C5 [MORPHINE GLUCURONIDE] | 0.0129 | 0.19 |  | 0.0723 | 0.17 |  |  |  |  | 4.06 |  | inactive | > 10 | 
5 | COC1[C@H](SC2OC(CO)C(O)C(O)C2O)C=C[C@H]2[C@H]3Cc4ccc(O)cc4[C@@]12CCN3C (some centres not stated) |  | 0.192 | 10.4 and 25.4 | 0.0915 | 0.0562 |  |  |  |  | 0.136 |  |  | 0.321 | 42.5% and 64.5% and 51.5%
6 | COC1[C@H](NC(=O)CC2OC(COCc3ccccc3)C(OCc3ccccc3)C(OCc3ccccc3)C2OCc2ccccc2)C=C[C@H]2[C@H]3Cc4ccc(O)cc4[C@@]12CCN3C (some centres not stated) | 0.0005 | 0.0022 |  | 0.623 | 0.0072 | 30.7 |  | 24.6 |  | 0.0158 |  |  | 0.0018 | 
